The first experiment concerns the target Human TASK-1 channels (Homo sapiens (Human), UniProt O14649). As to the kind of experiment: Determination of the activity on the TASK-1 channel in Xenopus oocytes (two-microelectrode voltage clamp). The experiment is classed as cell-based. The note with it: compound concentration 5 μM. Put shortly:
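Xenopus oocytes were injected with human TASK-1 cRNA and recorded two days later by two-microelectrode voltage clamp, holding at −90 mV with 500 ms steps to 40 mV. Superfusion used ND96, pH 7.4, at room temperature, with rising compound concentrations; percentage inhibition of control current was fitted to a dose-response curve for IC50.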
Chain of Human TASK-1 channels (O14649 whole entry, the tested form may be a part): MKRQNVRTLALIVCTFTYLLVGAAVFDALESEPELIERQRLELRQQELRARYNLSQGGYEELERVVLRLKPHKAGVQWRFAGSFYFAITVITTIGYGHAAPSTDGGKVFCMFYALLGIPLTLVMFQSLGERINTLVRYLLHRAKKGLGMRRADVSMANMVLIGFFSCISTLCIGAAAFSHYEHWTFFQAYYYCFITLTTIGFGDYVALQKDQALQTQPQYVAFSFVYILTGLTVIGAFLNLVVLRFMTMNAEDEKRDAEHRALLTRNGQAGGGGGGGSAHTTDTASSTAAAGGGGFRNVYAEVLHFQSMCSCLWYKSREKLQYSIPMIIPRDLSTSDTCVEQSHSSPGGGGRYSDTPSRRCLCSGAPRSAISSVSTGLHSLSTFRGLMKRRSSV
`CC[C@@H](NC(=O)c1cc(C(=O)N2CCC[C@@H]2C)n2c1COCC2)c1cncc(Cl)c1` [16cj, 6-((S)-2-Methyl-pyrrolidine-1-carbonyl)-3,4-dihydro-1H-pyrrolo[2,1-c][1,4]oxazine-8-carboxylic acid [(R)-1-(5-chloro-pyridin-3-yl)-propyl]-amide] came in with an inhibition at 5 µM of 69%.

`CC[C@@H](NC(=O)c1cc(C(=O)N2CCC[C@@H]2C)c2n1CCOC2)c1ccc(C#N)cc1` [16nl, 8-((S)-2-Methyl-pyrrolidine-1-carbonyl)-3,4-dihydro-1H-pyrrolo[2,1-c][1,4]oxazine-6-carboxylic acid [(R)-1-(4-cyano-phenyl)-propyl]-amide] yielded an inhibition at 5 µM of 70%.

Compound `CC[C@@H](NC(=O)c1cc(C(=O)N2CC[C@@H](C#N)C2)n2c1COCC2)c1ccccc1` [16fy, 6-((R)-3-Cyano-pyrrolidine-1-carbonyl)-3,4-dihydro-1H-pyrrolo[2,1-c][1,4]oxazine-8-carboxylic acid ((R)-1-phenyl-propyl)-amide] came in with an inhibition at 5 µM of 59%.

On to `C[C@@H](NC(=O)c1cc(C(=O)N2CCC[C@@H]2C)n2c1COCC2)c1ccc(Cl)cc1` [16as, 6-((S)-2-Methyl-pyrrolidine-1-carbonyl)-3,4-dihydro-1H-pyrrolo[2,1-c][1,4]oxazine-8-carboxylic acid [(R)-1-(4-chloro-phenyl)-ethyl]-amide], for which the inhibition at 5 µM is 87%.

In turn, `C[C@@H](NC(=O)c1cc(C(=O)NCC2CC2)c2n1CCOC2)c1ccc(F)cc1` [16ds, 3,4-Dihydro-1H-pyrrolo[2,1-c][1,4]oxazine-6,8-dicarboxylic acid 8-cyclopropylmethyl-amide 6-{[(R)-1-(4-fluoro-phenyl)-ethyl]-amide}] showed an inhibition at 5 µM of 89%.

In turn, `CC[C@@H](NC(=O)c1cc(C(=O)N2CCC[C@@H]2C)n2c1COCC2)c1ncccn1` [16bd, 6-((S)-2-Methyl-pyrrolidine-1-carbonyl)-3,4-dihydro-1H-pyrrolo[2,1-c][1,4]oxazine-8-carboxylic acid ((R)-1-pyrimidin-2-yl-propyl)-amide] gave an inhibition at 5 µM of 47%.

In turn, `C#CC1CCCN1C(=O)c1cc(C(=O)N[C@H](CC)c2ccccc2)c2n1CCOC2` (stereo partly drawn) [16fx, 6-(2-Ethynyl-pyrrolidine-1-carbonyl)-3,4-dihydro-1H-pyrrolo[2,1-c][1,4]oxazine-8-carboxylic acid ((R)-1-phenyl-propyl)-amide] registered an inhibition at 5 µM of 90%.

The same experiment, now with this note: human TASK-1 expressed in Xenopus oocytes, room temperature; read-out: IC50 value for TASK-1 inhibition.
On to `CC[C@@H](NC(=O)c1cc(C(=O)N2CCC(F)(F)CC2)n2c1CCCC2)c1ccccc1` [16mo, 3-(4,4-Difluoro-piperidine-1-carbonyl)-5,6,7,8-tetrahydro-indolizine-1-carboxylic acid ((R)-1-phenyl-propyl)-amide], for which the IC50 was 1900 nM.

Turning to `CC[C@@H](NC(=O)c1cc(C(=O)N[C@H](CC)c2cccc(S(C)(=O)=O)c2)n2c1COCC2)c1ccccc1` [16jh, 3,4-Dihydro-1H-pyrrolo[2,1-c][1,4]oxazine-6,8-dicarboxylic acid 6-{[(R)-1-(3-methanesulfonyl-phenyl)-propyl]-amide}-8-[((R)-1-phenyl-propyl)-amide]], the IC50 was determined as 780 nM.

Regarding `CC[C@@H](NC(=O)c1cc(C(=O)N2CCC[C@H]2C(C)C)c2n1CCOC2)c1ccccc1` [16km, 8-((S)-2-Isopropyl-pyrrolidine-1-carbonyl)-3,4-dihydro-1H-pyrrolo[2,1-c][1,4]oxazine-6-carboxylic acid ((R)-1-phenyl-propyl)-amide], the IC50 worked out at 390 nM.

On to `CC[C@@H](NC(=O)c1cc(C(=O)NCc2ncn[nH]2)n2c1COCC2)c1ccccc1` [16ii, 3,4-Dihydro-1H-pyrrolo[2,1-c][1,4]oxazine-6,8-dicarboxylic acid 8-[((R)-1-phenyl-propyl)-amide] 6-[(2H-[1,2,4]triazol-3-ylmethyl)-amide]], for which the 50% inhibitory concentration (IC50) amounted to 650 nM.

`CC[C@@H](NC(=O)c1cc(C(=O)NCC2CC2)n2c1COCC2)c1ccccc1` [16gc, 3,4-Dihydro-1H-pyrrolo[2,1-c][1,4]oxazine-6,8-dicarboxylic acid 6-cyclopropylmethyl-amide 8-[((R)-1-phenyl-propyl)-amide]]: the concentration for half-maximal inhibition (IC50) came to 100 nM.

On to `CC[C@@H](NC(=O)c1cc(C(=O)N2CCC[C@@H]2C)n2c1COCC2)c1ccc(SC(F)(F)F)cc1` [16ax, 6-((S)-2-Methyl-pyrrolidine-1-carbonyl)-3,4-dihydro-1H-pyrrolo[2,1-c][1,4]oxazine-8-carboxylic acid [(R)-1-(4-trifluoromethylsulfanyl-phenyl)-propyl]-amide], for which the IC50 turned out to be 350 nM.

For the compound `CC[C@@H](NC(=O)c1cc(C(=O)NC(C)c2nnn(CC)n2)n2c1COCC2)c1ccccc1` (stereo partly drawn) [16rq, 3,4-Dihydro-1H-pyrrolo[2,1-c][1,4]oxazine-6,8-dicarboxylic acid 6-{[1-(2-ethyl-2H-tetrazol-5-yl)-ethyl]-amide} 8-[((R)-1-phenyl-propyl)-amide]], the IC50 came out at 750 nM.

Turning to `CC[C@@H](NC(=O)c1cc(C(=O)N2CCC[C@@H]2C)c2n1CCOC2)c1ccccc1Cl` [16nh, 8-((S)-2-Methyl-pyrrolidine-1-carbonyl)-3,4-dihydro-1H-pyrrolo[2,1-c][1,4]oxazine-6-carboxylic acid [(R)-1-(2-chloro-phenyl)-propyl]-amide], the IC50 stood at 90 nM.

Consider `CC[C@@H](NC(=O)c1cc(C(=O)N2CCCCC2)n2c1CCCC2)c1ccccc1` [16mi, 3-(Piperidine-1-carbonyl)-5,6,7,8-tetrahydro-indolizine-1-carboxylic acid ((R)-1-phenyl-propyl)-amide], for which the IC50 stood at 590 nM.

As for `C[C@@H](NC(=O)c1cc(C(=O)N[C@H](C)c2ccc(F)cc2)n2c1COCC2)c1ccccc1` [16dn, 3,4-Dihydro-1H-pyrrolo[2,1-c][1,4]oxazine-6,8-dicarboxylic acid 6-{[(R)-1-(4-fluoro-phenyl)-ethyl]-amide} 8-[((R)-1-phenyl-ethyl)-amide]], the IC50 worked out at 50 nM.

Consider `CC[C@@H](NC(=O)c1cc(C(=O)N2Cc3ccccc3C2)n2c1COCC2)c1ccccc1` [16ih, 6-(1,3-Dihydro-isoindole-2-carbonyl)-3,4-dihydro-1H-pyrrolo[2,1-c][1,4]oxazine-8-carboxylic acid ((R)-1-phenyl-propyl)-amide], for which the 50% inhibitory concentration (IC50) is 200 nM.

With `CC[C@@H](NC(=O)c1cc(C(=O)N[C@H](CC)c2cccc(O)c2)n2c1COCC2)c1ccccc1` [16ix, 3,4-Dihydro-1H-pyrrolo[2,1-c][1,4]oxazine-6,8-dicarboxylic acid 6-{[(R)-1-(3-hydroxy-phenyl)-propyl]-amide} 8-[((R)-1-phenyl-propyl)-amide]], the IC50 turned out to be 360 nM.

With `CC[C@@H](NC(=O)c1cc(C(=O)N2CCOCC2)n2c1COCC2)c1ccccc1` [16eh, 6-(Morpholine-4-carbonyl)-3,4-dihydro-1H-pyrrolo[2,1-c][1,4]oxazine-8-carboxylic acid ((R)-1-phenyl-propyl)-amide], the IC50 worked out at 1700 nM.

With `CC[C@@H](NC(=O)c1cc(C(=O)N2CCC[C@@H]2C)c2n1CCOC2)c1ccccc1C(F)(F)F` [16ni, 8-((S)-2-Methyl-pyrrolidine-1-carbonyl)-3,4-dihydro-1H-pyrrolo[2,1-c][1,4]oxazine-6-carboxylic acid [(R)-1-(2-trifluoromethyl-phenyl)-propyl]-amide], the IC50 was found to be 290 nM.

For the compound `CC[C@@H](NC(=O)c1cc(C(=O)N2CCC[C@@H]2c2ccccc2)n2c1CCCC2)c1ccccc1` [16mm, 3-((R)-2-Phenyl-pyrrolidine-1-carbonyl)-5,6,7,8-tetrahydro-indolizine-1-carboxylic acid ((R)-1-phenyl-propyl)-amide], the IC50 amounted to 120 nM.

On to `CC[C@@H](NC(=O)c1cc(C(=O)NCc2ccccc2)n2c1CCCC2)c1ccccc1` [16nf, 5,6,7,8-Tetrahydro-indolizine-1,3-dicarboxylic acid 3-benzylamide 1-[((R)-1-phenyl-propyl)-amide]], for which the half-inhibitory concentration (IC50) was found to be 110 nM.

On to `CC[C@@H](NC(=O)c1cc(C(=O)N2CCC[C@@H]2C)n2c1COCC2)c1ccc(C#N)cc1Cl` [16bb, 6-((S)-2-Methyl-pyrrolidine-1-carbonyl)-3,4-dihydro-1H-pyrrolo[2,1-c][1,4]oxazine-8-carboxylic acid [(R)-1-(2-chloro-4-cyano-phenyl)-propyl]-amide], for which the IC50 was found to be 790 nM.

As to `CC[C@@H](NC(=O)c1cc(C(=O)N2CCCC2COC(F)(F)F)n2c1COCC2)c1ccccc1` (stereo partly drawn) [16en, 6-(2-Trifluoromethoxymethyl-pyrrolidine-1-carbonyl)-3,4-dihydro-1H-pyrrolo[2,1-c][1,4]oxazine-8-carboxylic acid ((R)-1-phenyl-propyl)-amide], the IC50 turned out to be 180 nM.

Consider `CC[C@@H](NC(=O)c1cc(C(=O)NC(C)C)n2c1COCC2)c1ccccc1` [16ge, 3,4-Dihydro-1H-pyrrolo[2,1-c][1,4]oxazine-6,8-dicarboxylic acid 6-isopropylamide 8-[((R)-1-phenyl-propyl)-amide]], for which the IC50 was 690 nM.

Consider `CC[C@@H](NC(=O)c1cc(C(=O)N2CCC[C@@H]2C#N)n2c1COCC2)c1ccccc1` [16fm, 6-((R)-2-Cyano-pyrrolidine-1-carbonyl)-3,4-dihydro-1H-pyrrolo[2,1-c][1,4]oxazine-8-carboxylic acid ((R)-1-phenyl-propyl)-amide], for which the concentration for half-maximal inhibition (IC50) came to 210 nM.

Turning to `C[C@H]1CCCN1C(=O)c1cc(C(=O)N[C@@H]2CCc3nc(C(F)(F)F)ccc32)c2n1CCOC2` (racemic) [16cv, 6-((S)-2-Methyl-pyrrolidine-1-carbonyl)-3,4-dihydro-1H-pyrrolo[2,1-c][1,4]oxazine-8-carboxylic acid ((R)-2-trifluoromethyl-6,7-dihydro-5H-[1]pyrindin-5-yl)-amide], the concentration for half-maximal inhibition (IC50) came to 900 nM.

For `CC[C@@H](NC(=O)c1cc(C(=O)N2CCC[C@@H]2C)n2c1COCC2)c1cnc(C(F)(F)F)cc1C(F)(F)F` [16by, 6-((S)-2-Methyl-pyrrolidine-1-carbonyl)-3,4-dihydro-1H-pyrrolo[2,1-c][1,4]oxazine-8-carboxylic acid [(R)-1-(4,6-bis-trifluoromethyl-pyridin-3-yl)-propyl]-amide], the concentration for half-maximal inhibition (IC50) is 800 nM.

The inhibition is the share of the control response that was lost under treatment. High values mean a response far below the control, low ones a response near the control. What is called IC50 is the point on the concentration scale where inhibition reaches its midpoint.

These data come from patent US9284333B2, “Fused pyrroledicarboxamides and their use as pharmaceuticals” (SANOFI, priority 2012, dated 2016).
